Laboratory results from US20110034487A1, “CXCR3 ANTAGONISTS” (AMGEN INC., priority 2009, published 2011).

Assays:
[1] = test system: lymphocyte migration toward I-TAC; assay: Lymphocyte migration toward I-TAC; assay type: cell-based; details: 100% human plasma, read-out: Migration to ITAC IC50 (nM) 100% Plasma
[2] = Multiple dosing of AMG 487 in humans; assay type: in vivo, human
From the text: Thus, there remains a need to identify a suitable clinical candidate devoid of the unpredicted accumulation seen with AMG 487. Such compounds are provided herein.

CXCR3 [3] = molecular target: T1, CXCR3 (Homo sapiens, UniProt P49682); assay: [125I]-IP-10 binding assay (CXCR3 binding)
T1 construct: endogenous in cells
T1 sequence (P49682 1-368): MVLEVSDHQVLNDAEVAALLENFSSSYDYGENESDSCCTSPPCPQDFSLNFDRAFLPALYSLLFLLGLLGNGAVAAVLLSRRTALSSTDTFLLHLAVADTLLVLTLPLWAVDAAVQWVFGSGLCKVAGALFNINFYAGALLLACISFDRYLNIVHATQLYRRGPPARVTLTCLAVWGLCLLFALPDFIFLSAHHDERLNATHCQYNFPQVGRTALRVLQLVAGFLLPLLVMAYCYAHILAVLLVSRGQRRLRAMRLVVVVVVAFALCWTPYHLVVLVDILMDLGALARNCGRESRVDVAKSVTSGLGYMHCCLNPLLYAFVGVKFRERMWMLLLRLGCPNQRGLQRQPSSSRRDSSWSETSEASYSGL
Procedure: (§1) Unless otherwise noted, all reagents used are available from commercial sources (e.g., Sigma). Test compounds are diluted in DMSO to a concentration that is 40-times the intended final assay concentration; 5 μL are transferred to each well of a 96-well flat-bottomed polypropylene plate (e.g., from Greiner, Inc.). The cells were resuspended in assay buffer (25 mM Hepes, 80 mM NaCl, 1 mM CaCl2, 5 mM MgCl2, 0.2% bovine serum albumin, pH 7.1, stored at 4° C.) at 5 million cells per mL; 100 μL of this cell suspension is then transferred to each well of a 96-well plate containing the diluted test compounds. ^125I-labelled chemokine (purchased from commercial sources, e.g., Amersham, PE Life Sciences) is diluted in assay buffer to a concentration of approximately 60 pM; 100 μL of this chemokine solution is transferred to each well of a 96-well plate containing compounds and cell suspension. The plates are sealed with commercially available foil plate seals (e.g., from E&K Scientific), and stored at 4° C. for 2 to 4 h, shaking gently. […] The plates are counted on a scintillation counter, such as a Packard TopCount. […] Data were analyzed using commercially available software (e.g., Excel from Microsoft, Prism from GraphPad Software Inc.).

CXCR3 [4] = molecular target: T1, CXCR3; assay: 125I-I-TAC binding assay (CXCR3 binding); details: 50% human plasma; primary, activated human lymphocytes
Procedure: as §1

CXCR3 [5] = molecular target: T1, CXCR3; assay: HWB receptor occupancy (500 ng/ml ITAC); assay type: cell-based
[6] = test system: cellular migration into the lung; assay: Cellular migration into the lung following bleomycin challenge; assay type: in vivo; details: following bleomycin challenge (FIG. 1)
CYP3A4 = CYP3A4 (Homo sapiens, UniProt P08684); details: human hepatocytes and microsomes
Chain of CYP3A4 (P08684 whole entry): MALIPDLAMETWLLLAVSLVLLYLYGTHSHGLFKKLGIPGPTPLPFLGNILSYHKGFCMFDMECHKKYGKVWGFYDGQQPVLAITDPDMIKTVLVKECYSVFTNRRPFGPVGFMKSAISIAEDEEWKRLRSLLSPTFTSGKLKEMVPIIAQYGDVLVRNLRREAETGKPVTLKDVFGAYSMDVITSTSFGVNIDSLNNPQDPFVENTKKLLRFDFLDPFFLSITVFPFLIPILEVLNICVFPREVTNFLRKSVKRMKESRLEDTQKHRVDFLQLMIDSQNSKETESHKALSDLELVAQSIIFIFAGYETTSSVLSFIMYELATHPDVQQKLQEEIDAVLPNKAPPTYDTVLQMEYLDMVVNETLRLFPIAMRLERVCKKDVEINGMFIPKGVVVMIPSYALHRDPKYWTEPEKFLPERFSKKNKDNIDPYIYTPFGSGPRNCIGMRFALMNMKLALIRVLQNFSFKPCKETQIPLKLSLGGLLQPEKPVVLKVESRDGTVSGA

Row | IC50 [1] [nM] | Accumulation of the compound upon multiple dosing [2] | IC50 (CXCR3 [3]; [125I]-IP-10 Binding IC50 (nM) 50% Plasma, 50% human plasma, primary, activated human lymphocytes) [nM] | IC50 (CXCR3 [3]; buffer, read-out: [125I]-IP-10 Binding IC50 (nM) Buffer) [nM] | IC50 (CXCR3 [4]) [µM] | IC50 (CXCR3 [5]) [µM] | SMILES | Cellular migration into the lung [6] | CYP3A4 inhibition (CYP3A4)
1 | 346 ± 123 | dose-dependent accumulation | – | – | – | – | CCOc1ccc(-n2c([C@@H](C)N(Cc3cccnc3)C(=O)Cc3ccc(OC(F)(F)F)cc3)nc3ncccc3c2=O)cc1 [AMG 487, reference compound] | – | –
2 | 65 ± 14 | – | 12 ± 5 | 7 ± 2 | 0.051 ± 0.02 | 0.0098 ± 0.0044 | C[C@H](c1nc2ncccc2c(=O)n1-c1ccc(Cl)cc1)N(CC1CCS(=O)(=O)CC1)C(=O)Cc1ccc(C(F)(F)F)c(F)c1 [Compound 1] | inhibits cellular migration into the lung | –
3 | – | – | – | – | – | – | CC(c1nc2ncccc2c(=O)n1-c1ccc(O)cc1)N(Cc1cccnc1)C(=O)Cc1ccc(OC(F)(F)F)cc1 (stereo not drawn) [Compound M2] | – | time-dependent inhibitor of CYP3A4
